{
  "source": "patent US7960614B2",
  "about": "“Plant transformation and selection” (Arborgen, LLC, priority 2003, dated 2011)",
  "key": {"loblolly cell lines": {"system": "loblolly cell lines", "test": "asa2 (pWVC33) selection on Geneticin, 5MT or AMT, PCR check (Example 32)", "format": "cell-based, Pinus taeda", "conditions": "Geneticin 15 mg/L with casein hydrolysate, 5MT or AMT 30 mg/L with AA4; for PCR confirmed positive (number of lines): of 12, 8, 22 lines PCR tested", "description": "Two loblolly cell lines were prepared for transformation using the method of Example 28, and co-cultivated with Agrobacterium tumefaciens transformed with pWVC33 (FIG. 7) as described in Example 28. Following eradication of Agrobacterium, each cell line was equally divided onto 6 plates each of 5 different selection media containing either casein hydrolysate and Geneticin at 15 mg/L, or amino acid mixture AA4 and either 5-methyltryptophan (5MT) at 30 or 50 mg/L or […] (AMT) at 30 or 50 mg/L. The results are show in FIG. 12. Putatively transformed sublines grow on Geneticin-containing plates and on both selection treatments where 30 mg/L of the methylated tryptophan selective analog was incorporated."}, "[1]": {"system": "Eucalyptus grandis x urophylla Clone IPB1", "test": "Geneticin selection of NPTII transformants, GUS staining of resistant calli", "format": "cell-based", "conditions": "about 10 weeks", "description": "Before transforming, the explants were pre-cultured for 4 days on a medium having auxin enrichment (IAA at 2 mg/l instead of 0.1 mg/l NAA in standard regeneration medium) and acetosyringone (250 μM). As described in Example 6, the explants were infected with Agrobacterium, co-cultivated on the same medium for 3 days, and then transferred to a regeneration medium supplemented with 400 mg/l timentin for 4 days. Then, the explants were transferred to a selection medium containing geneticin instead of an herbicide selection agent.\nThe transformants were placed on geneticin selection medium containing geneticin (either 20 or 30 mg/l). Instead of the 3- or 4-week transfer cycles used with an herbicide selection medium, the explants were transferred bi-weekly to fresh geneticin medium. After about 10 weeks of growth on geneticin selection medium, samples of geneticin-resistant calli were collected and stained with x-gluc for GUS expression, as described in Example 7. The following data summarizes GUS expression in geneticin-selected transformants."}, "[2]": {"system": "E. camaldulensis clone C9", "test": "Geneticin selection of NPTII transformants, GUS staining of resistant shoot lines", "format": "cell-based, Eucalyptus camaldulensis", "conditions": "8 weeks selection", "description": "Similar to the methods disclosed in Example 16, E. camaldulensis clone C9 was transformed with GV2260 harboring p35SGUSINT. Following regeneration, the explants were transferred to a selection medium containing geneticin (30, 40, 50, or 60 mg/l geneticin). For geneticin at levels of 30 and 50 mg/l, additional sets of explants were pre-cultured for 1 day. After 8 weeks on selection medium, samples of geneticin-resistant shoot cultures in the early developmental stage were collected and stained with x-gluc for GUS expression."}, "E. grandis clone IP1": {"system": "E. grandis clone IP1", "test": "Geneticin selection of NPTII transformants, GUS staining of resistant shoot lines", "format": "cell-based, Eucalyptus grandis", "conditions": "8 weeks", "description": "(Arabidopsis ActinII.:GUSINT, constitutive::NPTII). As described in Example 4, leaf explants from E. grandis clone IP1 were pre-cultured on a pre-culture medium comprising auxin and an Agrobacterium inducer. The explants were transformed with Agrobacterium and co-cultivated for 3 days on a pre-culture medium with auxin enrichment (IAA at 2 mg/l, instead of 0.1 mg/l NAA in standard regeneration medium) and acetosyringone (250 μM). Then the explants were transferred to Euc Regeneration medium supplemented with 400 mg/l timentin for 4 days. The explants were then transferred to selection medium containing geneticin (30 or 40 mg/l geneticin). After 8 weeks on selection medium, samples of geneticin-resistant shoot cultures in the early developmental stage were collected and stained with x-gluc for GUS expression."}, "[3]": {"system": "Loblolly pine (Pinus taeda) and hybrid pine (P. taeda×P. rigida) embryogenic cell lines", "test": "Selection of co-bombarded (als + nptII) pine embryogenic cells on Geneticin or Oust", "format": "cell-based", "from_the_text": "This example describes the selection of genetically transformed pine, using a selectable marker encoding ALS on selection media containing a sulfonylurea herbicide, at a level sufficient for selection in model plants. In some experiments, including the one described in the following example, a vector that would express the als gene in the plant tissue was co-bombarded into the cells with a vector that would express the nptII gene in the plant tissue, and the co-bombarded cells were then divided into two groups and placed onto selection medium containing either a sulfonylurea herbicide or Geneticin, so that the frequency with which transformants are selected on Geneticin could be compared with the frequency of selection on herbicide.\nTwenty identical replicates from the suspension cells of each of these three pine lines were prepared for gene transfer according to the method described in U.S. Pat. No. 6,518,485. Polyester membrane supports of a defined weight were sterilized by autoclaving and placing in separate sterile Buchner funnels, and approximately 1.5 ml of uniform pine embryogenic suspension at SCV 30 was pipetted onto each support such that the embryogenic tissue was evenly distributed over its surface. […]"}, "[4]": {"system": "loblolly pine and loblolly x pitch pine hybrid embryogenic lines", "test": "Growth of pine embryogenic lines on Oust with and without casein hydrolysate (FIG. 9)", "format": "cell-based, Pinus taeda; loblolly x pitch pine hybrid", "conditions": "Oust at 0, 10, 20, 40, and 80 nM, DCR2 with and without casein hydrolysate, twelve weeks", "description": "Six embryogenic lines, two each from three different families (two genetically diverse loblolly pine families and a family of a loblolly x pitch pine hybrid), were evaluated. Uniform suspension cultures from each of the genetically different tissue culture lines were established as described in Example 26. Three identical replicates from the suspension cells of each of these six lines were plated as described in Example 26 on each of ten formulations of DCR2 medium, namely with and without casein hydrolysate, and containing the herbicide Oust at 0, 10, 20, 40, and 80 nM. The plates were sealed and incubated under the same conditions used for pre-experimental initiation, maintenance and selection steps in Example 26. Every three weeks the culture was transferred to fresh medium of the same formulation as previously provided, following weighing under sterile conditions of the tissue on the polyester support."}, "E. dunnii clone DUN00001": {"system": "E. dunnii clone DUN00001", "test": "Shoot regeneration from Agrobacterium-inoculated internodal explants, zeatin/NAA optimisation", "format": "cell-based, Eucalyptus dunnii", "description": "This example teaches a method to optimize the levels of growth regulators for shoot regeneration from the recalcitrant commercial E. dunnii clone DUN00001 or other recalcitrant clones. Internodal explants are prepared as described in Example 1 and are inocultated with Agrobacterium as described in Example 5. Following co-cultivation, transformed shoot clumps are transferred to a shoot regeneration medium. […] To optimize the auxin and cytokinin concentrations in the shoot regeneration media, several combinations of hormones were evaluated as a function of the production of elongated shoots. […] During the initial screening, the zeatin levels were 10, 1, and 0.1 mg/l and the NAA levels were 0.01, 0.1 and 1 mg/l. […] The following data summarize the attempt to optimize the level of zeatin and NAA."}},
  "data": [
    {"molecule": "CC(c1c[nH]c2ccccc12)[C@H](N)C(=O)O", "note": "(stereo partly drawn) [AMT30, β-methyltryptophan]", "values": [
      {"measurement": "False positive Frequency", "setting": "loblolly cell lines", "result": 0.09},
      {"measurement": "PCR confirmed positive (number of lines)", "setting": "loblolly cell lines", "result": 20}
    ]},
    {"molecule": "CN[C@@H]1[C@@H](O)[C@@H](O[C@@H]2[C@@H](O)[C@H](O[C@H]3O[C@H]([C@@H](C)O)[C@@H](O)[C@H](O)[C@H]3N)[C@@H](N)C[C@H]2N)OC[C@]1(C)O", "note": "[Geneticin]", "values": [
      {"measurement": "No. GUS^+ Calli", "setting": "[1]; Geneticin 20 mg/l, regular shaded light, 5 calli stained", "result": 0},
      {"measurement": "No. GUS^+ Calli", "setting": "[1]; Geneticin 30 mg/l, dark, 6 calli stained", "result": 4},
      {"measurement": "No. GUS^+ Calli", "setting": "[1]; Geneticin 30 mg/l, regular shaded light, 17 calli stained", "result": 13},
      {"measurement": "% GUS^+ Shoots", "setting": "[2]; Geneticin 30 mg/l, pre-culture 1 day", "result": 37.9, "unit": "%"},
      {"measurement": "No. GUS^+ Shoot Lines", "setting": "[2]; Geneticin 30 mg/l, pre-culture 1 day, 29 lines stained", "result": 11},
      {"measurement": "% GUS^+ Shoots", "setting": "[2]; Geneticin 30 mg/l, pre-culture 4 days", "result": 12.8, "unit": "%"},
      {"measurement": "No. GUS^+ Shoot Lines", "setting": "[2]; Geneticin 30 mg/l, pre-culture 4 days, 39 lines stained", "result": 5},
      {"measurement": "% GUS^+ Shoots", "setting": "[2]; Geneticin 40 mg/l, pre-culture 4 days", "result": 11.8, "unit": "%"},
      {"measurement": "No. GUS^+ Shoot Lines", "setting": "[2]; Geneticin 40 mg/l, pre-culture 4 days, 68 lines stained", "result": 8},
      {"measurement": "% GUS^+ Shoots", "setting": "[2]; Geneticin 50 mg/l, pre-culture 1 day", "result": 50, "unit": "%"},
      {"measurement": "No. GUS^+ Shoot Lines", "setting": "[2]; Geneticin 50 mg/l, pre-culture 1 day, 12 lines stained", "result": 6},
      {"measurement": "% GUS^+ Shoots", "setting": "[2]; Geneticin 50 mg/l, pre-culture 4 days", "result": 19.4, "unit": "%"},
      {"measurement": "No. GUS^+ Shoot Lines", "setting": "[2]; Geneticin 50 mg/l, pre-culture 4 days, 31 lines stained", "result": 7},
      {"measurement": "% GUS^+ Shoots", "setting": "[2]; Geneticin 60 mg/l, pre-culture 4 days", "result": 50, "unit": "%"},
      {"measurement": "No. GUS^+ Shoot Lines", "setting": "[2]; Geneticin 60 mg/l, pre-culture 4 days, 8 lines stained", "result": 4},
      {"measurement": "% GUS^+ Shoots", "setting": "E. grandis clone IP1; explant source rooted plants, Geneticin 30 mg/l", "result": 0, "unit": "%"},
      {"measurement": "No. GUS^+ Shoot Lines", "setting": "E. grandis clone IP1; explant source rooted plants, Geneticin 30 mg/l, 1 line stained", "result": 0},
      {"measurement": "% GUS^+ Shoots", "setting": "E. grandis clone IP1; explant source shoot cluster, Geneticin 30 mg/l", "result": 50, "unit": "%"},
      {"measurement": "No. GUS^+ Shoot Lines", "setting": "E. grandis clone IP1; explant source shoot cluster, Geneticin 30 mg/l, 16 lines stained", "result": 8},
      {"measurement": "% GUS^+ Shoots", "setting": "E. grandis clone IP1; explant source shoot cluster, Geneticin 40 mg/l", "result": 57, "unit": "%"},
      {"measurement": "No. GUS^+ Shoot Lines", "setting": "E. grandis clone IP1; explant source shoot cluster, Geneticin 40 mg/l, 7 lines stained", "result": 4},
      {"measurement": "putative transgenic sublines in which stable transformation is verified", "setting": "[3]; selection on Geneticin 15 mg/L, 12 sublines tested", "result": 100, "unit": "%"},
      {"measurement": "False positive Frequency", "setting": "loblolly cell lines", "result": 0.08},
      {"measurement": "PCR confirmed positive (number of lines)", "setting": "loblolly cell lines", "result": 11}
    ]},
    {"molecule": "COC(=O)c1ccccc1S(=O)(=O)NC(=O)Nc1nc(C)cc(C)n1", "note": "[Oust]", "values": [
      {"measurement": "putative transgenic sublines that were false positives", "setting": "[3]; selection on 50 nM Oust, medium with casein hydrolysate", "result": "Eighty"},
      {"measurement": "success as selective agent (stopping cell growth), FIG. 9", "setting": "[4]", "result": "successful as a selective agent at multiple concentrations only in the absence of casein hydrolysate"}
    ]},
    {"molecule": "C/C(=C\\CNc1ncnc2[nH]cnc12)CO", "note": "[Zeatin, zeatin]", "values": [
      {"measurement": "shoot induction, comparison of levels in two experiments", "setting": "E. dunnii clone DUN00001; Table 5 experiments", "result": "zeatin at 5 mg/l is better than 10 mg/l"},
      {"measurement": "shoot regeneration, initial screening of levels", "setting": "E. dunnii clone DUN00001; zeatin 10, 1, and 0.1 mg/l with NAA 0.01, 0.1 and 1 mg/l", "result": "better results at 10 mg/l than at 1 mg/l or 0.1 mg/l"}
    ]}
  ]
}
